The values that follow come from patent US20070117770A1, “Human ribosomal DNA (rDNA) and ribosomal RNA (rRNA) nucleic acids and uses thereof” (Cylene Pharmaceuticals, Inc., priority 2005, published 2007).

One assay deals with PKCι(h) (Homo sapiens, UniProt P41743). Kind of assay: Protein kinase inhibition assay. In kind it is biochemical. To be noted: read-out: percent residual activity of PKCι(h). How it is done:
(§1) Certain compounds were tested for activity in protein kinase inhibition assays. All substrates were dissolved and diluted to working stocks in de-ionized water, apart from histone H1 (10× working stock in 20 mM MOPS pH 7.0), PDKtide (10× working stock in 50 mM Tris pH 7.0) ATF2 (which is typically stored at a 20× working stock in 50 mM Tris pH 7.5, 150 mM NaCl, 0.1 mM EGTA, 0.03% Brij-35, 50% glycerol, 1 mM benzamidine, 0.2 mM PMSF and 0.1% R-mercaptoethanol), KKLNRTLSFAEPG (SEQ ID NO:203) and RRRLSFAEPG (SEQ ID NO:204) (50 mM HEPES pH 7.4) and GGEEEEYFELVKKKK (SEQ ID NO:205) (20 mM MOPS pH 7.0). All kinases were pre-diluted to a 10× working concentration prior to addition into the assay. The composition of the dilution buffer for each kinase is detailed below.
In a final reaction volume of 25 μl, PKCι (h) (5-10 mU) is incubated with 20 mM HEPES pH 7.4, 0.03%. Triton X-100, 50 μM ERMRPRKRQGSVRRRV (SEQ ID NO:224), 10 mM MgAcetate and [gamma-33P-ATP] (specific activity approx. 500 cpm/pmol, concentration as required). The reaction is initiated by the addition of the MgATP mix. After incubation for 40 minutes at room temperature, the reaction is stopped by the addition of 5 μl of a 3% phosphoric acid solution. […]

The next assay concerns the target Pyk2(h) (Homo sapiens, UniProt Q14289). Kind of assay: Protein kinase inhibition assay. In kind it is biochemical. The following applies: read-out: percent residual activity of Pyk2(h). How it is done:
as §1
(§2) In a final reaction volume of 25 μl, Pyk2 (h) (5-10 mU) is incubated with 8 mM MOPS pH 7.0, 0.2 mM EDTA, 0.1 mg/ml poly(Glu, Tyr) 4:1, 10 mM MgAcetate and [gamma-33P-ATP] (specific activity approx. 500 cpm/pmol, concentration as required). The reaction is initiated by the addition of the MgATP mix. After incubation for 40 minutes at room temperature, the reaction is stopped by the addition of 5 μl of a 3% phosphoric acid solution. 10 μl of the reaction is then spotted onto a Filtermat A and washed three times for 5 minutes in 75 mM phosphoric acid and once in methanol prior to drying and scintillation counting.

Another assay deals with HCT116 cells. In words: Protein synthesis (3H-methionine incorporation). The format is cell-based. To be noted: at the tested concentrations. How it is done:
Effects of compound A-1 and compound B-1 on DNA synthesis, RNA synthesis and protein synthesis were determined in HCT116 cells. HCT116 cells were plated overnight at 100,000 cells per mL. Next day cells were treated with increasing amounts of either compound A-1 or compound B-1 followed by one hour incubation with BrdU label (from a BrdU Cell proliferation Assay Kit, Calbiochem) to monitor DNA synthesis; […] of ^3H-uridine to monitor total RNA synthesis; […] of ^3H-methionine to monitor protein synthesis or plain media to monitor RNA Polymerase II-dependent RNA synthesis. DNA synthesis was assessed using a BrdU-ELISA (BrdU Cell proliferation Assay Kit, Calbiochem). To measure total RNA synthesis, total RNA from treated cells was isolated with a RNease kit (QIAGEN), levels of total RNA were assessed with Ribogreen reagent (Invitrogen) and the newly synthesized tritiated RNA was measured in a scintillation Counter (Perkin Elmer). To measure effects on protein synthesis, cells were lysed in a RIPA buffer, and total protein was precipitated with 10% TCA on a glass-filters. Newly synthesized tritiated protein was measured in a scintillation Counter (Perkin Elmer). Effects of drugs on […] RNA synthesis were assessed by monitoring levels of a c-myc mRNA, which has a relatively short half-life of approximately 30 minutes, by Taqman qRT-PCR (ABI).

The target of a further assay is Flt3(h) (Homo sapiens, UniProt P36888). In words: Protein kinase inhibition assay. In kind it is biochemical. The following applies: read-out: percent residual activity of Flt3(h). How it is done: as §1
as §2, with “Flt3” for “Pyk2”, “50 μM EAIYAAPFAKKK (SEQ ID NO:206),” for “0.1 mg/ml poly(Glu, Tyr) 4:1,”, “P30 filtermat” for “Filtermat A”

The next assay has as its target Fes(h) (Homo sapiens, UniProt P07332). In words: Protein kinase inhibition assay. In kind it is biochemical. To be noted: read-out: percent residual activity of Fes(h). How it is done:
as §1
as §2, with “Fes” for “Pyk2”, “[y-33P-ATP]” for “[gamma-33P-ATP]”

The next assay has as its target MAPK2(h) (Homo sapiens, UniProt P28482). In words: Protein kinase inhibition assay. In kind it is biochemical. To be noted: read-out: percent residual activity of MAPK2(h). How it is done: as §1
In a final reaction volume of 25 μl, MAPK2 (h) (5-10 mU) is incubated with 25 mM Tris pH 7.5, 0.02 mM EGTA, 0.33 mg/ml myelin basic protein, 10 mM MgAcetate and [gamma-33P-ATP] (specific activity approx. 500 cpm/pmol, concentration as required). The reaction is initiated by the addition of the MgATP mix. After incubation for 40 minutes at room temperature, the reaction is stopped by the addition of […] of a 3% phosphoric acid solution. 10 μl of the reaction is then spotted onto a P30 filtermat and washed three times for 5 minutes in 75 mM phosphoric acid and once in methanol prior to drying and scintillation counting.

Pyk2(h), sequence (Q14289 whole entry): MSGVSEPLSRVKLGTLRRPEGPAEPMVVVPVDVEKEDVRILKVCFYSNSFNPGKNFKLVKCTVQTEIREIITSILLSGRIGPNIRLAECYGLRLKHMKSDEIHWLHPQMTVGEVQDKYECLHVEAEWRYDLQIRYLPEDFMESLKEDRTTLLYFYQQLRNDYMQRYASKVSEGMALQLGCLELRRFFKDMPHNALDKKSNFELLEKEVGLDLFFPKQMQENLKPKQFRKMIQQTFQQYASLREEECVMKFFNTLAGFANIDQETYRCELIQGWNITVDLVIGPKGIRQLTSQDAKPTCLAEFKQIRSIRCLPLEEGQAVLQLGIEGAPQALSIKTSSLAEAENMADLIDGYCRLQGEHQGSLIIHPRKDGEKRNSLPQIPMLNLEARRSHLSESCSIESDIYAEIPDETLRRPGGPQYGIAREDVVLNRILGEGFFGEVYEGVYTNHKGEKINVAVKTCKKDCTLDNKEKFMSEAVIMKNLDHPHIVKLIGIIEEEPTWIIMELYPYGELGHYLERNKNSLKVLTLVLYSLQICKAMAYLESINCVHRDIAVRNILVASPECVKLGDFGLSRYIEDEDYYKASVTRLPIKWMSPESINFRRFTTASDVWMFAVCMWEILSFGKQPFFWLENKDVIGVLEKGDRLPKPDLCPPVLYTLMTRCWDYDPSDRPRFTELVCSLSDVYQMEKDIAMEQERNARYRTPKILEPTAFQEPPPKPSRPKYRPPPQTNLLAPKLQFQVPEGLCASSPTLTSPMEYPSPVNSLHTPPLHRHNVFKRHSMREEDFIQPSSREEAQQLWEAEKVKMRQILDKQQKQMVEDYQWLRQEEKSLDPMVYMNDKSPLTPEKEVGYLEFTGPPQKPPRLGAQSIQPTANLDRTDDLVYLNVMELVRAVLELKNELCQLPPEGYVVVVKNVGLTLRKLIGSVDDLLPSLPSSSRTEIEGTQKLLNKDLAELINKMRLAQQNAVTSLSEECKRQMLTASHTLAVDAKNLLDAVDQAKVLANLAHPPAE
Fes(h), sequence (P07332 whole entry): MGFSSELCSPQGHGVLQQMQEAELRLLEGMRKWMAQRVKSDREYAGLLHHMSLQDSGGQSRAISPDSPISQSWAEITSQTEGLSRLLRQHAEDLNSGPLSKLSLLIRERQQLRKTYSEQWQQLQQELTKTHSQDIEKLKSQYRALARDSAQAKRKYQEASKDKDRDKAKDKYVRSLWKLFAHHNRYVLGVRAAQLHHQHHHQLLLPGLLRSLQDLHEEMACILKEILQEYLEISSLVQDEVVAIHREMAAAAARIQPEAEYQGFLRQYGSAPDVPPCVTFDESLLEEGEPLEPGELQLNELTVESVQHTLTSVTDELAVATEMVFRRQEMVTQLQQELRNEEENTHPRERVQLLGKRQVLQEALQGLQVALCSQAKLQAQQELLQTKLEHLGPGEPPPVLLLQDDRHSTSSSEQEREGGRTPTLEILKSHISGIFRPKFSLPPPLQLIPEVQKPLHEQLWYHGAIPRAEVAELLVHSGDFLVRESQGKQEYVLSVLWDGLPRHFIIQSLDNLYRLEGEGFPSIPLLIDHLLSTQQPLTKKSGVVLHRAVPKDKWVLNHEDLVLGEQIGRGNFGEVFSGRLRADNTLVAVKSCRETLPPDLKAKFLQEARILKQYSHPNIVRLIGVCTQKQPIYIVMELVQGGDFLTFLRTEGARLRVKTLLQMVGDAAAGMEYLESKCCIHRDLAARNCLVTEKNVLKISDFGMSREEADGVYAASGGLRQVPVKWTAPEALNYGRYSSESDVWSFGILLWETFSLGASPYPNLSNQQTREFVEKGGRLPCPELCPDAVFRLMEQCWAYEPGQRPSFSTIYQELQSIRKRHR
MAPK2(h), sequence (P28482 whole entry): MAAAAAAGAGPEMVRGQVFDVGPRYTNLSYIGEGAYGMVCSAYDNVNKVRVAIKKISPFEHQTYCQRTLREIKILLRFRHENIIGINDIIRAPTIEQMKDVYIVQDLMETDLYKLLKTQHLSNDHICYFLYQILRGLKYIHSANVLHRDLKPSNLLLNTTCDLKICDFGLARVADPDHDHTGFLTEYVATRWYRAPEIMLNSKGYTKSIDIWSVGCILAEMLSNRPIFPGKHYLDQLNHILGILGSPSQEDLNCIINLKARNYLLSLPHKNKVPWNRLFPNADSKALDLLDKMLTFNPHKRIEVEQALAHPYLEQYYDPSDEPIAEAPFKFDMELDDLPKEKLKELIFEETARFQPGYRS
Flt3(h), sequence (P36888 27-993): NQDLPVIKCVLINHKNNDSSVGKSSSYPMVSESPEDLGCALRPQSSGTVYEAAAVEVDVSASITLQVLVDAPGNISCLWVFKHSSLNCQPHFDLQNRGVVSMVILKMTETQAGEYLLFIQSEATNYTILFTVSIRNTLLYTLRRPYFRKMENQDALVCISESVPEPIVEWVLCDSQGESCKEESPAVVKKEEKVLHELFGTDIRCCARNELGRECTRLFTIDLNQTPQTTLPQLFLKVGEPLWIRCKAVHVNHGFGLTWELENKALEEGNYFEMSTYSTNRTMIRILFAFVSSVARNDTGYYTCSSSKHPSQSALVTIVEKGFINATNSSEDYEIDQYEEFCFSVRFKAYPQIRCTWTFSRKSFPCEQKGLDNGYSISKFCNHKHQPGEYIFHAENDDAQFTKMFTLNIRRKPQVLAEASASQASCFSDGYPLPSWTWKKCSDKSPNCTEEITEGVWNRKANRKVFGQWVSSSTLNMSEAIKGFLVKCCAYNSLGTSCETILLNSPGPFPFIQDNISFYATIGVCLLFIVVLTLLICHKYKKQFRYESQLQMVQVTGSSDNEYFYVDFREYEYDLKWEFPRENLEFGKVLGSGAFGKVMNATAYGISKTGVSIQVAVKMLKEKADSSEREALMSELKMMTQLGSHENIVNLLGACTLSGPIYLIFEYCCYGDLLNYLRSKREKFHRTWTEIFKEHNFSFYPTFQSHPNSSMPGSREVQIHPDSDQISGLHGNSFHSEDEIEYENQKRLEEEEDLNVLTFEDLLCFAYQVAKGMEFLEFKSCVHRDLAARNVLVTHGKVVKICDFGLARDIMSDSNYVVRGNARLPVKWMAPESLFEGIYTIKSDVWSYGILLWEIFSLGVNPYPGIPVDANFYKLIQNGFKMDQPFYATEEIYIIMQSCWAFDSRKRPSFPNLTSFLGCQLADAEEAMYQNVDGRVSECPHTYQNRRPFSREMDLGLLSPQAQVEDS
PKCι(h), sequence (P41743 whole entry): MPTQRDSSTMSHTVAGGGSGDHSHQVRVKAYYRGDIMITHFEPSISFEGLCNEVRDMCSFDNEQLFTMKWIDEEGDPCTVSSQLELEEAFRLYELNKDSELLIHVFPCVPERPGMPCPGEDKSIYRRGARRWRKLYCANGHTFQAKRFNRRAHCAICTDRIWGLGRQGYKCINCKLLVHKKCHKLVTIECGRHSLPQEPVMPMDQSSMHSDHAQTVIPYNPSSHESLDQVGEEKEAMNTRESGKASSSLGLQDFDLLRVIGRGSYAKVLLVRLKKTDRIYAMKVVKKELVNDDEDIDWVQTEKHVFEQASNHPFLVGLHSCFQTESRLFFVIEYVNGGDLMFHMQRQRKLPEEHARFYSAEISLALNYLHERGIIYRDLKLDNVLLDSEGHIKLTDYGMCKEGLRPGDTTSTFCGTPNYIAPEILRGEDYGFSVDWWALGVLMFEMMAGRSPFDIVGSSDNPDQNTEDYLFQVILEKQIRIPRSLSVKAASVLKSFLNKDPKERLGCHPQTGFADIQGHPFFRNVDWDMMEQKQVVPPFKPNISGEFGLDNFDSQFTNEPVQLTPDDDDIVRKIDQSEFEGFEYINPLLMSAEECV

Turning to `CN1CCCC1CCNC(=O)c1cn2c3c(c(N4CCC(c5cnccn5)C4)c(F)cc3c1=O)Oc1cc3ccccc3cc1-2` (stereo not drawn) [Compound A-1], the remaining activity at 2.5 µM on PKCι(h) amounted to 72%; on Pyk2(h), 95%; on Flt3(h), 32%; at Fes(h) it was 82%; at MAPK2(h), 101%. Further, the “effect on protein synthesis” value in the assay with HCT116 cells was “no measureable effect”.

For `CC(=O)N1CCN(c2ccc3c(=O)c(C(=O)NCCN4CCCC4)c4n(C)c5ccccc5n4c3n2)CC1` [Compound B-1], the remaining activity at 2.5 µM on PKCι(h) was determined as 95%; on Pyk2(h), 105%; on Flt3(h) it was 100%; on Fes(h) it was 101%; on MAPK2(h), 108%. In the assay with HCT116 cells, the “effect on protein synthesis” value is reported as “no measureable effect”.
